# Experimental data from patent US20050060764A1, “Mouse model for bone metabolism” (priority 2003, published 2005).
# Strand notation (5' to 3'): a small letter for the sugar, then the base; units joined by * are phosphorothioate-linked, units joined directly phosphodiester-linked; [ ] holds rarer units or linkages, { } end groups; capitals alone tell only the bases. e = 2'-O-(2-methoxyethyl) (MOE); [5mC] = 5-methylcytosine; d = 2'-deoxy (DNA)
# B1: parathyroid hormone (peptide, UniProt P01270 32-115, looked up)
# Parathyroid hormone: SVSEIQLMHNLGKHLNSMERVEWLRKKLQDVHNFVALGAPLAPRDAGSQRPRKKEDNVLVESHEKSLGEADKADVNVLTKAKSQ
# notes: parathyroid hormone infused to induce bone resorption in the mouse model
# What was measured:
# Type in all cases: in vivo, mouse
# [1] = Serum calcium concentration after RANK antisense oligonucleotide treatment and PTH infusion: dose response and delivery method (Table 12)
# Experimental: In accordance with the present invention, ISIS 181071 was evaluated for its ability to inhibit RANK expression and PTH-induced serum calcium concentration increase following 18 days of oligonucleotide treatment.
# Female Swiss-Webster mice (5-8 wks old), fed a low-calcium diet, were treated for 18 days with ISIS 181071 (SEQ ID NO: 356) at different doses and through different delivery methods. The dose of oligonucleotide was either 30 mg/kg, 20 mg/kg, 10 mg/kg, 3 mg/kg, or 0.1 mg/kg administered by daily subcutaneous injections for the first five days, followed by mini-pump infusion for the remaining 13 days, or the dose was 10 mg/kg or 30 mg/kg administered daily by subcutaneous injection for the entire 18 day period. After 18 days of treatment with oligonucleotides, the mice were infused with PTH by subcutaneously implanted mini-pumps at a dose of 1 ug/100 g/6 hr. A group of control mice received saline, calcitonin (400 ng) plus PTH (1 ug/100 g/6 hr) or PTH alone (1 ug/100 g/6 hr). After 24 hours of PTH infusion (total PTH delivery of 4ug/100 g), the mice were sacrificed and measurements were made of serum calcium with the Sigma Diagnostics Calcium Kit (Sigma-Aldrich) and RANK mRNA expression in proximal tibia (as described in other examples herein). The results are shown in Table 12 are normalized to PTH treatment alone and are the average of four mice per group.
# [2] = Serum calcium concentration in mice treated with RANK antisense oligonucleotide, no PTH: dose response and delivery method (Table 11)
# Experimental: In accordance with the present invention, antisense inhibition of the RANKL receptor, RANK, was evaluated in the short-term model of bone resorption. Serum calcium concentration was measured in mice treated with RANK antisense oligonucleotides at different doses, delivered by subcutaneous mini-pumps or subcutaneous injection.
# ISIS 181071 ([…], SEQ ID NO: 356) is an antisense oligonucleotide targeted to mouse RANK. […] All cytidine residues are 5-methylcytidines.
# Female Swiss-Webster mice (5-8 wks old), fed a low-calcium diet were treated with ISIS 181071 (SEQ ID NO: 356) for 15 days. The dose of oligonucleotide was either 30 mg/kg, 20 mg/kg, 10 mg/kg, 3 mg/kg, or 0.1 mg/kg administered by daily subcutaneous injections for the first five days, followed by mini-pump infusion for the remaining 10 days, or the dose was 10 mg/kg or 30 mg/kg administered daily by subcutaneous injection for the entire 15 day period. No PTH was administered to the mice that received oligonucleotide. A group of control mice were treated with either saline, PTH alone (1 ug/100 g/6 hr) or calcitonin (400 ng) plus PTH (1 ug/100 g/6 hr). After […] (total PTH delivery of 3 ug/100 g), blood samples were taken from the tail of the mice and the serum calcium concentration was measured with the Sigma Diagnostics Calcium Kit (Sigma-Aldrich). […] Thus, increase in serum calcium concentration is due to the PTH treatment rather than the oligonucleotide treatment.
# [3] = Serum calcium concentration after PTH infusion in mice treated with RANK antisense oligonucleotide: dosing schedule study (Table 14)
# Experimental: In accordance with the present invention, various antisense oligonucleotide dosing schedules were tested for their ability to inhibit serum calcium concentration increase resulting from PTH infusion.
# Female Swiss-Webster mice (5-8 wks old) were fed a low-calcium diet. The mice were dosed with the same total amount of ISIS 181071 (SEQ ID NO: 356) (450 mg/kg), however the frequency of the dosage was varied. The first group received daily injections for […]. The second group received daily injections of 30 mg/kg/day for 5 days; the remaining 300 mg/kg was divided into 12 injections over 24 days and were administered every other day. The third group received daily injections of 30 mg/kg/day for 5 days; the remaining 300 mg/kg was divided into 8 injections over 24 days and were administered every third day. The fourth group received daily injections of 30 mg/kg/day for 5 days; the remaining 300 mg/kg was divided into 6 injections over 24 days and were administered every fourth day. Each group contained eight mice. Treatment with oligonucleotides was followed with infusion of PTH by subcutaneously implanted mini-pumps at a dose of 1 ug/100 g/6 hr. A control group received saline or PTH alone (1 ug/100 g/6 hr). After 24 hours of PTH infusion (total PTH delivery of 4 ug/100 g), the mice were sacrificed and the serum calcium concentration was measured with the Sigma Diagnostics Calcium Kit (Sigma-Aldrich). The data are shown in Table 14 and are the average of eight mice per group.
# [4] = Serum calcium concentration 24 hours after PTH infusion in mice treated with RANKL antisense oligonucleotides (Table 10); settings: no oligonucleotide treatment, PTH 1 ug/100 g/6 hr 24 h, calcitonin 400 ng
molecule,measurement,setting,value
"TCCTCGAGAGGTCTCCTTGC (antisense eT*e[5mC]*e[5mC]*eT*e[5mC]*dG*dA*dG*dA*dG*dG*dT*d[5mC]*dT*d[5mC]*e[5mC]*eT*eT*eG*e[5mC]) [ISIS 181071, 2′-MOE gapmer antisense oligonucleotide targeted to mouse RANK]",serum calcium,"[1]; 0.1 mg/kg, injection 5 days then infusion 13 days, then 24 h PTH",21 mg/dL
same,serum calcium,"[1]; 3 mg/kg, injection 5 days then infusion 13 days, then 24 h PTH",20 mg/dL
same,serum calcium,"[1]; 10 mg/kg daily subcutaneous injection 18 days, then 24 h PTH",18 mg/dL
same,serum calcium,"[1]; 10 mg/kg, injection 5 days then infusion 13 days, then 24 h PTH",18 mg/dL
same,serum calcium,"[1]; 20 mg/kg, injection 5 days then infusion 13 days, then 24 h PTH",18 mg/dL
same,serum calcium,"[1]; 30 mg/kg daily subcutaneous injection 18 days, then 24 h PTH",14 mg/dL
same,serum calcium,"[1]; 30 mg/kg, injection 5 days then infusion 13 days, then 24 h PTH",17 mg/dL
same,Serum calcium concentration,"[2]; 0.1 mg/kg, injection 5 days then mini-pump infusion 10 days, no PTH",9 mg/dL
same,Serum calcium concentration,"[2]; 3 mg/kg, injection 5 days then mini-pump infusion 10 days, no PTH",9 mg/dL
same,Serum calcium concentration,"[2]; 10 mg/kg daily subcutaneous injection 15 days, no PTH",9 mg/dL
same,Serum calcium concentration,"[2]; 10 mg/kg, injection 5 days then mini-pump infusion 10 days, no PTH",9 mg/dL
same,Serum calcium concentration,"[2]; 20 mg/kg, injection 5 days then mini-pump infusion 10 days, no PTH",9 mg/dL
same,Serum calcium concentration,"[2]; 30 mg/kg daily subcutaneous injection 15 days, no PTH",8 mg/dL
same,Serum calcium concentration,"[2]; 30 mg/kg, injection 5 days then mini-pump infusion 10 days, no PTH",9 mg/dL
same,rise in serum calcium concentration in response to PTH infusion,"[3]; mice, total 450 mg/kg, various dosing schedules, 24 hours PTH infusion",can similarly prevent the rise in serum calcium concentration
same,Serum calcium concentration,"[3]; total 450 mg/kg, 30 mg/kg/day 5 days then every fourth day (6 injections over 24 days), then 24 h PTH",18 mg/dL
same,Serum calcium concentration,"[3]; total 450 mg/kg, 30 mg/kg/day 5 days then every other day (12 injections over 24 days), then 24 h PTH",16 mg/dL
same,Serum calcium concentration,"[3]; total 450 mg/kg, 30 mg/kg/day 5 days then every third day (8 injections over 24 days), then 24 h PTH",17 mg/dL
same,Serum calcium concentration,"[3]; total 450 mg/kg, daily injections for 2 weeks, then 24 h PTH",16 mg/dL
B1,serum calcium,"[1]; control mice, no oligonucleotide, PTH 1 ug/100 g/6 hr 24 h, calcitonin 400 ng",20 mg/dL
same,Serum calcium concentration,"[2]; control mice, no oligonucleotide, PTH 1 ug/100 g/6 hr, calcitonin 400 ng, after 16 hours",9 mg/dL
same,Serum calcium concentration,"[3]; control group, PTH alone 1 ug/100 g/6 hr, 24 h",21 mg/dL
same,serum calcium,[4]; control groups under ISIS 180814 columns,22 mg/dL
same,serum calcium,[4]; control groups under ISIS 180819 columns,22 mg/dL
